# Experimental data published in US20220184235A1, “NEAR-INFRARED FLUORESCENT PROBES FOR MOLECULAR IMAGING OF BONE REPAIR” (Taipeibio Co., Ltd., priority 2020, published 2022).
# Bridges are numbered along the chain shown (N, C = ends). Where no end group is shown, it is not given here.
# Assays:
# [1] = NIR fluorescence emission spectra of the probes; format: physicochemical; conditions: excitation of 777 nm
# Method: Triethylamine (65.3 μL, 0.467 mmol) and 3-mercaptopropionic acid (40.7 μL, 0.467 mmol) were added to a solution of IR-783 (250 mg, 0.33 mmol) in 6 mL of anhydrous dimethylformamide (“DMF”). The resulting green solution was stirred in the dark at room temperature. The conversion reaction of IR783 to CyTE777 was complete after 21 h, as monitored by high-performance liquid chromatography (“HPLC”). A green solid was isolated through precipitation with ether at 4° C. and was washed with 3 mL cold ether. The precipitate was dissolved in water and dried under vacuum.
# The augmented fluorescence intensity indicated completed conjugation.
# Pamidronate (“PAM”) was attached to the carboxylate surface of nanoAu to form nanoAu-Pam directly or using a zero-length crosslinking agent, i.e., 1-ethyl-3-[3-dimethyl-aminopropyl] carbodiimide hydrochloride (“EDC”). Briefly, equal volumes of nanoAu (40 mM), pamidronate (3 mM), and EDC (80 mM) were mixed at room temperature for 2 h. To concentrate the nanoAu-Pam, the reaction was loaded on a 30 kDa molecular sieve (Amicon) and centrifuged at 3000 rpm for 10 min. The solution was centrifuged twice and washed with phosphate-buffered saline (“PBS”) to remove any unbound reactants. […] The fluorescence intensity of excitation spectra was recorded using an Edinburgh FL 900 CDT Time-Resolved Fluorometer (Edinburgh Analytical Instruments, Livingston, UK).
# [2] = statement on the purchased dye; cited from earlier work
# undifferentiated MSCs [3] = experiment: Calcein staining of undifferentiated MSCs; format: cell-based
# Method: (§1) Cells were also stained with calcein using a standard protocol to confirm calcium deposition in the culture. A 10x calcein/PBS staining solution was added to each well without medium change. The cells were incubated at 37° C., 5% CO2 overnight, washed twice with PBS, fixed with formaldehyde, and observed by fluorescence microscopy.
# [4] = tested on: osteoblastic-differentiated MSC culture; experiment: Calcein staining for calcium deposition in osteogenically induced MSC culture; format: cell-based; conditions: MSC culture after 21 days of osteogenic induction
# Method: as §1, with “For osteogenic induction, MSCs were cultured in 24-well plates in DMEM/LG medium supplemented with 10% FBS, 100 units/mL penicillin, 100 μg/mL streptomycin, 50 μg/ml L-ascorbate-2-phosphate, 10^−7 M dexamethasone and 10 mM β-glycero-phosphate at 37° C., 5% CO2. Cells” for “Cells”
# [5] = tested on: osteoblastic-induced MSCs (α5β1); experiment: Binding specificity of α5β1L-CyTE777 in osteoblastic-induced MSCs, confocal microscopy; format: cell-based; conditions: osteoblastic-induced MSC
# Method: (§2) To determine the binding specificity of α5β1L-CyTE777, undifferentiated MSCs or osteoblastic-induced MSCs were cultured in 24-well plates in DMEM/LG supplemented with 10% FBS. α5β1L-CyTE777 was applied to the cultures to detect binding to α5β1 . Cultures incubated with α5β1L-CyTE777 were washed with PBS twice and analyzed by confocal microscopy after staining nuclei with diamidinophenylindole (“DAPI”).
# undifferentiated MSCs [6] = experiment: Binding specificity of α5β1L-CyTE777 in undifferentiated MSCs, confocal microscopy; format: cell-based; conditions: undifferentiated MSC
# Method: as §2
molecule,measurement,setting,value
CC1(C)C(=CC=C2CCCC(C=CC3=[N+](CCCCS(=O)(=O)[O-])c4ccccc4C3(C)C)=C2SCCC(=O)O)N(CCCCS(=O)(=O)[O-])c2ccccc21.[Na+] [CyTE777],NIR emission peak,[1],820 nm
CC1(C)C(=CC=C2CCCC(C=CC3=[N+](CCCCS(=O)(=O)[O-])c4ccccc4C3(C)C)=C2Cl)N(CCCCS(=O)(=O)[O-])c2ccccc21.[Na+] [IR783],cell toxicity,[2],minimal cell toxicity
O=C(O)CN(CC(=O)O)Cc1cc2c(cc1O)Oc1cc(O)c(CN(CC(=O)O)CC(=O)O)cc1C21OC(=O)c2ccccc21 [calcein],calcein staining (calcium deposition),undifferentiated MSCs [3],No calcein staining
same,calcein staining (calcium deposition),[4],positive staining
α5β1L-CyTE777: CyTE777 conjugated to the N-terminal glycine NH2 of disulfide-cyclised peptide GGCRRETAWAC (SEQ ID NO: 1) (CyTE777-GGCRRETAWAC; disulfide 3-11 (inferred)),NIR emission peak,[1],820 nm
same,fluorescent signal of cells incubated with probe,[5],strong NIR fluorescence at 820 nm
same,fluorescent signal of cells incubated with probe,undifferentiated MSCs [6],did not show any fluorescent signal
